In assay [1] the test system is E. coli. Nature of the assay: Growth of bacteria in LB broth, CFU over time. As to conditions: 37° C., Adk 20, 50, 100 μg/ml, ampicillin 100 μg/ml, FIG. 2. The assay is classed as cell-based, Escherichia coli. The protocol:
(§1) To verify the antibacterial activity of the recombinant ADK protein obtained in Example 1, the effect of the ADK protein on the growth of gram-negative bacteria such as E. coli and P. aeruginosa and a gram-positive bacterium such as S. aureus was analyzed.
(§2) More specifically, 1×10^5 CFU of strains were put into a 10 ml LB broth, and an antibiotic (ampicillin) and the ADK protein were added respectively according to five conditions as follows (Group 1: LB broth media with 100 μg/ml ampicillin, Group 2: LB broth media with 20 μg/ml Adk, Group 3: LB broth media with 50 μg/ml Adk, Group 4: LB broth media with 100 μg/ml Adk, Group 5: Non-antibacterial agent LB broth media). The strains were cultured in a 37° C. shaking incubator, 100 μl aliquots of each group was taken at 3-hour intervals and diluted with an LB broth in predetermined ratios, followed by plating the resulting cells on an LB agar (Biobasic, Amherst, N.Y.) plate. The cells were cultured again in a 37° C. incubator overnight, and then CFU values over time were calculated by counting the number of colonies on the LB agar plate.

Assay [2] relates to P. aeruginosa. Nature of the assay: Growth of bacteria in LB broth, CFU over time. It is filed as cell-based, Pseudomonas aeruginosa. The following applies: 37° C., Adk 20, 50, 100 μg/ml, ampicillin 100 μg/ml, FIG. 3.
The subject of assay [3] is S. aureus. Briefly: Growth of bacteria in LB broth, CFU over time. The following applies: 37° C., Adk 20, 50, 100 μg/ml, ampicillin 100 μg/ml, FIG. 4. The assay is classed as cell-based, Staphylococcus aureus. The protocol:
as §1, §2

Assay [4] relates to E. coli K1. Nature of the assay: Sepsis animal model, survival rate. It is filed as in vivo, BALB/c mice. As to conditions: gentamicin 100 μg/kg intraperitoneally; FIG. 12.
For assay [5], the system named is E. coli K1. Briefly: Sepsis animal model, serum analysis. The assay is classed as in vivo, BALB/c mice. As to conditions: 12 hours after sepsis induction; LAL assay kit; FIG. 15. The protocol:
Twelve hours after sepsis induction, levels of inflammatory cytokines (TNF-α, IL-6, and IL-1β), AST, ALT, BUN, and endotoxins in sera isolated from mice were analyzed. Here, a cytokine concentration was measured using an ELISA kit (eBiosciences, San Diego, Calif.), and endotoxins were analyzed using an endotoxin detection kit (LAL assay kit, Thermo Fisher Scientific, Bremen, Germany).

Turning to `CC1(C)S[C@@H]2[C@H](NC(=O)[C@H](N)c3ccccc3)C(=O)N2[C@H]1C(=O)O` [ampicillin], in assay [1], the “growth of E. coli (CFU over time)” value is listed as “inhibited”. For the same compound, in assay [2], the “growth of P. aeruginosa (CFU over time)” value is listed as “inhibited”. Further, the “growth of S. aureus (CFU over time)” value in assay [3] is recorded as “inhibited”.
Turning to gentamicin, the “time after sepsis induction at which all mice were dead” value in assay [4] worked out at 30 h. Also, the “amount of endotoxins in mouse sera” value in assay [5] is “a significant difference from the negative control (CON) was not observed”.

Source of the values: patent US10543258B2, “Antibacterial composition containing ADK protein as active ingredient, or composition for preventing or treating sepsis” (priority 2014, dated 2020).
